Experiments:
Format in all cases: binding
[1] = target: broad panel of kinases (Homo sapiens, UniProt P57059); conditions: SIK; 1 μM
[2] = target: broad panel of kinases (Homo sapiens, UniProt O96017); conditions: CHEK2; 1 μM
[3] = target: broad panel of kinases (Homo sapiens, UniProt P29376); conditions: LTK; 1 μM
[4] = target: broad panel of kinases (Homo sapiens, UniProt P36897); conditions: TGFBR1; 1 μM
[5] = target: broad panel of kinases (Homo sapiens, UniProt O60331); conditions: PIP5K1C; 1 μM
[6] = target: broad panel of kinases (Homo sapiens, UniProt Q9UF33); conditions: EPHA6; 1 μM
[7] = target: broad panel of kinases (Homo sapiens, UniProt Q9BZL6); conditions: PRKD2; 1 μM
[8] = target: broad panel of kinases (Homo sapiens, UniProt P04626); conditions: ERBB2; 1 μM
[9] = target: broad panel of kinases (Homo sapiens, UniProt Q9HAZ1); conditions: CLK4; 1 μM
[10] = target: broad panel of kinases (Homo sapiens, UniProt Q9UPZ9); conditions: ICK; 1 μM
[11] = target: broad panel of kinases (Homo sapiens, UniProt P27361); conditions: ERK1; 1 μM
[12] = target: broad panel of kinases (Homo sapiens, UniProt Q9NYY3); conditions: PLK2; 1 μM
[13] = target: broad panel of kinases (Homo sapiens, UniProt O15146); conditions: MUSK; 1 μM
broad panel of kinases (Homo sapiens, UniProt O15146), sequence (O15146 24-869 limits assumed): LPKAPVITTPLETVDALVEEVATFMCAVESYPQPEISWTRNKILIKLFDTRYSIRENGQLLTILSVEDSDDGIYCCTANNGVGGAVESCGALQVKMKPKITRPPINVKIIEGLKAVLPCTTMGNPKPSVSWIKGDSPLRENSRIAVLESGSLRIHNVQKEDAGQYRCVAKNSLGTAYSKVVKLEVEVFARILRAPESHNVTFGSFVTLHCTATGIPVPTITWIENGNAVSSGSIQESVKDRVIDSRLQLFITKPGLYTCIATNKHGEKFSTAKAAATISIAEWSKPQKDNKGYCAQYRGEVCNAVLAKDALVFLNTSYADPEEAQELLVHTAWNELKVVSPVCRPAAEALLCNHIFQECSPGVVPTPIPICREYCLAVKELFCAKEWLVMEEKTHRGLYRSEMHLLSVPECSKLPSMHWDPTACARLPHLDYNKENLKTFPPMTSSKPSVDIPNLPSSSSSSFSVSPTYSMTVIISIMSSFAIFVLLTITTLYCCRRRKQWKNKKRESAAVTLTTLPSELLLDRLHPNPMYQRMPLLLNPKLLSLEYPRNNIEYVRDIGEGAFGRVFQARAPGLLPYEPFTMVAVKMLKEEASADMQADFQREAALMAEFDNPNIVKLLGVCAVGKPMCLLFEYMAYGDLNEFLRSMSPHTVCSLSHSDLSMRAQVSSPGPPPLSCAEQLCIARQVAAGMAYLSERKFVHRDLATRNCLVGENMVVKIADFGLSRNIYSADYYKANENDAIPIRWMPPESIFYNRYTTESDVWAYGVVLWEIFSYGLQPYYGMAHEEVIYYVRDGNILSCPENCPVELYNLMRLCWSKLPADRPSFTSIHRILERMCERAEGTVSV

[14] = target: broad panel of kinases (Homo sapiens, UniProt P08581, M1250T); conditions: MET(M1250T); 1 μM
[15] = target: broad panel of kinases (Homo sapiens, UniProt Q9P289); conditions: MST4; 1 μM
[16] = target: broad panel of kinases (Homo sapiens, UniProt Q8NFD2); conditions: ANKK1; 1 μM
[17] = target: broad panel of kinases (Homo sapiens, UniProt Q9UM73, C1156Y); conditions: ALK(C1156Y); 1 μM
broad panel of kinases (Homo sapiens, UniProt Q9UM73, C1156Y), sequence (Q9UM73 19-1620 C1156Y limits assumed): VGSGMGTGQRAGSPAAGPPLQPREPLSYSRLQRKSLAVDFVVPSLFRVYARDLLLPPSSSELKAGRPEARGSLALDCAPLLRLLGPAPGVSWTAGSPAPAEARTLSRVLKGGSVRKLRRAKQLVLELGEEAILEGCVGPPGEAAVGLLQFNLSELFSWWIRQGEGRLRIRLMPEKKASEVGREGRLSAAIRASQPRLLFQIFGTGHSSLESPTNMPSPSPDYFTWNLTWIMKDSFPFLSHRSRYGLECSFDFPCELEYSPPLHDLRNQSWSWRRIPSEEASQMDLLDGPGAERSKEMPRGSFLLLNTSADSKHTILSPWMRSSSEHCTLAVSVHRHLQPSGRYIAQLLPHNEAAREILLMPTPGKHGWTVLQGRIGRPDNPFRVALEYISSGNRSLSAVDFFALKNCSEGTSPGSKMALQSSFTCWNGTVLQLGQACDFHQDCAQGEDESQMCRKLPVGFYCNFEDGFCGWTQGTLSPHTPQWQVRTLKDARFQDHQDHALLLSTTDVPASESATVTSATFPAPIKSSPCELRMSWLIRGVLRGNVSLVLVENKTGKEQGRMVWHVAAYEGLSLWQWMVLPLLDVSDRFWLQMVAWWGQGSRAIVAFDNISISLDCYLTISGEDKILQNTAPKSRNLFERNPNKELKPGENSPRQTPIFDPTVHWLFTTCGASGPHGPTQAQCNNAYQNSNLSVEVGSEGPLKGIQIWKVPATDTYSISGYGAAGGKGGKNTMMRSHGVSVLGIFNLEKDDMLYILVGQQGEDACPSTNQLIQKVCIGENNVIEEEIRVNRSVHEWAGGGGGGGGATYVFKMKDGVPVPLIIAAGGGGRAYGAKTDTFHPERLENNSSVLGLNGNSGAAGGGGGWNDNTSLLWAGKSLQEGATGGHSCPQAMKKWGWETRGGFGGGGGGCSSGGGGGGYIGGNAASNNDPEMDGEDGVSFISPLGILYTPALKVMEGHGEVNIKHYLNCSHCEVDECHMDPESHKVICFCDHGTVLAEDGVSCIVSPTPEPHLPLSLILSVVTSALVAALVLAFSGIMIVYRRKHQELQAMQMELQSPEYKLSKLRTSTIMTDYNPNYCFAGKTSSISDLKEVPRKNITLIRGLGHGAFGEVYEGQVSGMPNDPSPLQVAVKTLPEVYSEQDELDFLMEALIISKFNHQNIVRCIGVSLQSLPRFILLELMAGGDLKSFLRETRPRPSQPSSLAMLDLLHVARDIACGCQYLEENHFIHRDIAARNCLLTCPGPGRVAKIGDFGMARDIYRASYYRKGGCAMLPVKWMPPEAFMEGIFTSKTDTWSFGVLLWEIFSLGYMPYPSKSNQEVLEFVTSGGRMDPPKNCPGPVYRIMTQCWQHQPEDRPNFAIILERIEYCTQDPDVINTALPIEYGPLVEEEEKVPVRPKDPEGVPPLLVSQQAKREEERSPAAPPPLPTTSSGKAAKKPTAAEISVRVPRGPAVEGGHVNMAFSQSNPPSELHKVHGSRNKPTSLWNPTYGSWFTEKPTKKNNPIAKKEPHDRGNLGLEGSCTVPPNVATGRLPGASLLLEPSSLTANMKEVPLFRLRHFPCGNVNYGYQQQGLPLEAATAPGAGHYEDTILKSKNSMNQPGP

[18] = target: broad panel of kinases (Homo sapiens, UniProt Q9NSY1); conditions: BIKE; 1 μM
[19] = target: broad panel of kinases (Homo sapiens, UniProt Q15139); conditions: PRKD1; 1 μM
[20] = target: broad panel of kinases (Homo sapiens, UniProt Q13555); conditions: CAMK2G; 1 μM
[21] = target: broad panel of kinases (Homo sapiens, UniProt O14578); conditions: CIT; 1 μM
[22] = target: broad panel of kinases (Homo sapiens, UniProt Q9H4B4); conditions: PLK3; 1 μM
[23] = target: broad panel of kinases (Homo sapiens, UniProt P42684); conditions: ABL2; 1 μM
broad panel of kinases (Homo sapiens, UniProt P42684), sequence (P42684 2-1182 limits assumed): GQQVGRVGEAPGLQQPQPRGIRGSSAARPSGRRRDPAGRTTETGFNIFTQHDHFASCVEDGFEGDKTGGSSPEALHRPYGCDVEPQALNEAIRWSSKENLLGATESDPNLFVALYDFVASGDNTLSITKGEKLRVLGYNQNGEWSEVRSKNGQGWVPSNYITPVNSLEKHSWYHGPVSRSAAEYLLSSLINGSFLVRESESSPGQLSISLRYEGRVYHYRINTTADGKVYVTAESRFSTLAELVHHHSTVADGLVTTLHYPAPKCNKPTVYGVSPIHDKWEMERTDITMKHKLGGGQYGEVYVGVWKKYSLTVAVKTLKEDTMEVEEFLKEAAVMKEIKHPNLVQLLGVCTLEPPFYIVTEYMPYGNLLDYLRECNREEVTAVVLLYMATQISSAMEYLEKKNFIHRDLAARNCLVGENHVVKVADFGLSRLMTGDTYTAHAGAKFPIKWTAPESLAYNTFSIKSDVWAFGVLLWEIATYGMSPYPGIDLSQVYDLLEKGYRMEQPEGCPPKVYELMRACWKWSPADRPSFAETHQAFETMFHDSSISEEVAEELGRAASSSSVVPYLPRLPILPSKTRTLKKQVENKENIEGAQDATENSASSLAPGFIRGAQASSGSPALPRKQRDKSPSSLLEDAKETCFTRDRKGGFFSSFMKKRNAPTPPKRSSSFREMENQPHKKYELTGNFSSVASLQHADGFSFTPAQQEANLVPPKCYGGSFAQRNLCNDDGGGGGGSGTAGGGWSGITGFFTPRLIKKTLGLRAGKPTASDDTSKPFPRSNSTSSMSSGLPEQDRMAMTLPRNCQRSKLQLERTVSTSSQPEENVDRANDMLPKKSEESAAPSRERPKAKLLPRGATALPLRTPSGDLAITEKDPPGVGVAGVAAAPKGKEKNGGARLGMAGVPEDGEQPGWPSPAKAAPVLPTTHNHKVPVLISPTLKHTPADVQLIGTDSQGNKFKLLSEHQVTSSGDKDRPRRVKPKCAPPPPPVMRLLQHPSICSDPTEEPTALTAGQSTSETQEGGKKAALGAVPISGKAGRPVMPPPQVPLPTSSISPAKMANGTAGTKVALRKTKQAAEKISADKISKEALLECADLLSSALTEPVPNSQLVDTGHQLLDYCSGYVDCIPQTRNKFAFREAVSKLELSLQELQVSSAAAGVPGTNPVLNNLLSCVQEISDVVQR

[24] = target: broad panel of kinases (Homo sapiens, UniProt O14920); conditions: IKK-beta; 1 μM
[25] = target: broad panel of kinases (Homo sapiens, UniProt P0C1S8); conditions: WEE2; 1 μM
[26] = target: broad panel of kinases (Homo sapiens, UniProt Q9Y6R4); conditions: MAP3K4; 1 μM
[27] = target: broad panel of kinases (Homo sapiens, UniProt P30530); conditions: AXL; 1 μM
[28] = target: broad panel of kinases (Homo sapiens, UniProt P10721, V559D/V654A); conditions: KIT(V559D, V654A); 1 μM
[29] = target: broad panel of kinases (Homo sapiens, UniProt Q9BVS4); conditions: RIOK2; 1 μM
[30] = target: broad panel of kinases (Homo sapiens, UniProt P42685); conditions: FRK; 1 μM
[31] = target: broad panel of kinases (Homo sapiens, UniProt O95747); conditions: OSR1; 1 μM
[32] = target: broad panel of kinases (Homo sapiens, UniProt O75116); conditions: ROCK2; 1 μM
[33] = target: broad panel of kinases (Homo sapiens, UniProt P11362); conditions: FGFR1; 1 μM
[34] = target: broad panel of kinases (Homo sapiens, UniProt Q9P1W9); conditions: PIM2; 1 μM
[35] = target: broad panel of kinases (Homo sapiens, UniProt P21709); conditions: EPHA1; 1 μM
broad panel of kinases (Homo sapiens, UniProt P21709), sequence (P21709 26-976 limits assumed): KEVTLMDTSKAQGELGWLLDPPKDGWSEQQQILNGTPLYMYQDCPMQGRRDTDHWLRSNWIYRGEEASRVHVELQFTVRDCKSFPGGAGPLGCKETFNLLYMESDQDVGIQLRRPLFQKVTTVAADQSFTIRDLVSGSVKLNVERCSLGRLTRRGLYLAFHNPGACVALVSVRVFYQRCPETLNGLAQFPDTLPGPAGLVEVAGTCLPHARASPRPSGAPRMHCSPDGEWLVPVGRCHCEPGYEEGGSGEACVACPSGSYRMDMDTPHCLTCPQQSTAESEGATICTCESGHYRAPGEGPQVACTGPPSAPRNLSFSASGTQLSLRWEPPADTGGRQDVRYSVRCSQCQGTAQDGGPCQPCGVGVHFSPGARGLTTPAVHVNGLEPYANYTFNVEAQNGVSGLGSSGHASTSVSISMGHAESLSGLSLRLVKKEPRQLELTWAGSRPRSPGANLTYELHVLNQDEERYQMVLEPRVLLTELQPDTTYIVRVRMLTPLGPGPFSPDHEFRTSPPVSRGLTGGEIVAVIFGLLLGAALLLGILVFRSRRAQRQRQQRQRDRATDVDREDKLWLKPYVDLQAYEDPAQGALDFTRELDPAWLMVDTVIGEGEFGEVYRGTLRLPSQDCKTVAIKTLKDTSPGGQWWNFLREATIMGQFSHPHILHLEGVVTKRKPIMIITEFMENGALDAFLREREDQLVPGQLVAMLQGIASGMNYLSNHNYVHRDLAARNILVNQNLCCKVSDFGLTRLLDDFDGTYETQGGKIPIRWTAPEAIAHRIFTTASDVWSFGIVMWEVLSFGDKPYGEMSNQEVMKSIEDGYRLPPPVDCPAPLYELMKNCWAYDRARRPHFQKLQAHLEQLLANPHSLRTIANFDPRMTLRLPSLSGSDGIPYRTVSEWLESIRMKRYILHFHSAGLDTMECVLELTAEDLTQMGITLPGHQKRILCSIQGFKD

[36] = target: broad panel of kinases (Homo sapiens, UniProt P46734); conditions: MEK3; 1 μM
[37] = target: broad panel of kinases (Homo sapiens, UniProt Q00532); conditions: CDKL1; 1 μM

broad panel of kinases (Homo sapiens, UniProt P36897), sequence (P36897 34-503 limits assumed): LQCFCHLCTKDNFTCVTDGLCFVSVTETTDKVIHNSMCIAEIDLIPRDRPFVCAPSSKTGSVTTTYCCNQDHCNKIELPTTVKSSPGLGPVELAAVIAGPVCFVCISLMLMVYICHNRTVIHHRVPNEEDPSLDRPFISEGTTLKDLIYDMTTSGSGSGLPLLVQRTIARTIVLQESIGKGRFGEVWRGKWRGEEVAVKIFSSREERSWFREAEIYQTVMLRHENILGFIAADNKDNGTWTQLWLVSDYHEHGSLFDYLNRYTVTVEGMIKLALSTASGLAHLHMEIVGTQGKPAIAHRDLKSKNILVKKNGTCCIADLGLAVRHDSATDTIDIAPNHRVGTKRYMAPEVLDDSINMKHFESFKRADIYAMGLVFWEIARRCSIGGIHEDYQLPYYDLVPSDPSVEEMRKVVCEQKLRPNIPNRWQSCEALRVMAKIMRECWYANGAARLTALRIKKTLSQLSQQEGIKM

Row | SMILES | percent of control binding remaining (lower = stronger binding) [1] [%] | percent of control binding remaining (lower = stronger binding) [2] [%] | percent of control binding remaining (lower = stronger binding) [3] [%] | percent of control binding remaining (lower = stronger binding) [4] [%] | percent of control binding remaining (lower = stronger binding) [5] [%] | percent of control binding remaining (lower = stronger binding) [6] [%] | percent of control binding remaining (lower = stronger binding) [7] [%] | percent of control binding remaining (lower = stronger binding) [8] [%] | percent of control binding remaining (lower = stronger binding) [9] [%] | percent of control binding remaining (lower = stronger binding) [10] [%] | percent of control binding remaining (lower = stronger binding) [11] [%] | percent of control binding remaining (lower = stronger binding) [12] [%] | percent of control binding remaining (lower = stronger binding) [13] [%] | percent of control binding remaining (lower = stronger binding) [14] [%] | percent of control binding remaining (lower = stronger binding) [15] [%] | percent of control binding remaining (lower = stronger binding) [16] [%] | percent of control binding remaining (lower = stronger binding) [17] [%] | percent of control binding remaining (lower = stronger binding) [18] [%] | percent of control binding remaining (lower = stronger binding) [19] [%] | percent of control binding remaining (lower = stronger binding) [20] [%] | further results
1 | C=CC(=O)N1CC[C@H](Nc2nc(CN3CCOCC3)cc(Nc3ncc(C(=O)Nc4c(C)cccc4C)s3)n2)C1 [Example I-2] | 0.8 | 97 | 100 | 50 | 99 | 100 | 100 | 7.5 | 94 | 86 | 97 | 92 | 98 | 100 | 100 | 94 | 94 | 100 | 93 | 91 | percent of control binding remaining (lower = stronger binding) [21]: 100%; percent of control binding remaining (lower = stronger binding) [22]: 99%; percent of control binding remaining (lower = stronger binding) [23]: 0.3%; percent of control binding remaining (lower = stronger binding) [24]: 75%; percent of control binding remaining (lower = stronger binding) [25]: 100%; percent of control binding remaining (lower = stronger binding) [26]: 83%; percent of control binding remaining (lower = stronger binding) [27]: 96%; percent of control binding remaining (lower = stronger binding) [28]: 7.2%; percent of control binding remaining (lower = stronger binding) [29]: 92%; percent of control binding remaining (lower = stronger binding) [30]: 0.1%; percent of control binding remaining (lower = stronger binding) [31]: 81%; percent of control binding remaining (lower = stronger binding) [32]: 95%; percent of control binding remaining (lower = stronger binding) [33]: 91%; percent of control binding remaining (lower = stronger binding) [34]: 84%; percent of control binding remaining (lower = stronger binding) [35]: 0.5%; percent of control binding remaining (lower = stronger binding) [36]: 99%; percent of control binding remaining (lower = stronger binding) [37]: 100%
2 | C=CC(=O)N1CC[C@H](Nc2nccc(Nc3ncc(C(=O)Nc4c(C)cccc4C)s3)n2)C1 [Example I-3] | 0.4 | 97 | 100 | 97 | 65 | 100 | 100 | 0.8 | 85 | 87 | 95 | 76 | 100 | 100 | 100 | 100 | 84 | 90 | 94 | 97 | percent of control binding remaining (lower = stronger binding) [21]: 88%; percent of control binding remaining (lower = stronger binding) [22]: 97%; percent of control binding remaining (lower = stronger binding) [23]: 0.25%; percent of control binding remaining (lower = stronger binding) [24]: 86%; percent of control binding remaining (lower = stronger binding) [25]: 97%; percent of control binding remaining (lower = stronger binding) [26]: 95%; % change compared to control [27]: 76%; percent of control binding remaining (lower = stronger binding) [28]: 25%; percent of control binding remaining (lower = stronger binding) [29]: 77%; percent of control binding remaining (lower = stronger binding) [30]: 0.1%; percent of control binding remaining (lower = stronger binding) [31]: 98%; percent of control binding remaining (lower = stronger binding) [32]: 75%; percent of control binding remaining (lower = stronger binding) [33]: 93%; percent of control binding remaining (lower = stronger binding) [34]: 72%; percent of control binding remaining (lower = stronger binding) [35]: 1.6%; percent of control binding remaining (lower = stronger binding) [36]: 100%; percent of control binding remaining (lower = stronger binding) [37]: 93%
